Assay results reported in ChEMBL document CHEMBL1201862, “PubChem BioAssay data set” (2004).
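Protocol summary: plate cells (96-well), add compound at 5 concentrations, incubate 48 h, interpolate endpoints linearly. The concentration for 50% growth inhibition is given as GI50.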 Calls of active or inactive are those of the source. Rule as the data show it: active = GI50 up to about 1.1 µM and inactive = higher.

Columns and labels:
Assay in all cases: NCI anticancer screen, dose series, 48 h
[1] = tested on: A549
[2] = tested on: EKVX
[3] = tested on: KM12
[4] = tested on: M14
[5] = tested on: MCF7
[6] = tested on: MDA-MB-435
[7] = tested on: NCI-H23
[8] = tested on: OVCAR-5
[9] = tested on: OVCAR-8
[10] = tested on: RPMI-8226
[11] = tested on: SK-MEL-28
[12] = tested on: SK-MEL-5
[13] = tested on: SNB-19
[14] = tested on: SW-620
[15] = tested on: MDA-N
[16] = tested on: SK-OV-3
[17] = tested on: SR

| SMILES | GI50 [1] | GI50 [2] | GI50 [3] | GI50 [4] | GI50 [5] | GI50 [6] | GI50 [7] | GI50 [8] | GI50 [9] | GI50 [10] | GI50 [11] | GI50 [12] | GI50 [13] | GI50 [14] | GI50 [15] | GI50 [16] | GI50 [17] |
| --- | --- | --- | --- | --- | --- | --- | --- | --- | --- | --- | --- | --- | --- | --- | --- | --- | --- |
| N=C(N)N/N=C\c1c(-c2cccc([N+](=O)[O-])c2)nc2sccn12 | 18.1 µM (inactive) | 15.9 µM (inactive) | 1.02 µM (active) | 2.52 µM (inactive) | 2.03 µM (inactive) | 2.59 µM (inactive) | 3.94 µM (inactive) | 3.91 µM (inactive) | 1.81 µM (inactive) | 17.4 µM (inactive) | 2.04 µM (inactive) | 14.6 µM (inactive) | 2.09 µM (inactive) | 2.08 µM (inactive) | – | – | – |
| CCOc1cc(C2CC(c3ccc(NS(=O)(=O)c4cc([N+](=O)[O-])ccc4C)cc3)=NN2S(=O)(=O)c2cc([N+](=O)[O-])ccc2C)ccc1O (stereo unspecified) | 32.4 µM (inactive) | 22.1 µM (inactive) | 41.1 µM (inactive) | 34.1 µM (inactive) | 31.9 µM (inactive) | 38.4 µM (inactive) | 30.6 µM (inactive) | > 100 µM (inactive) | 42.8 µM (inactive) | 34.3 µM (inactive) | 83 µM (inactive) | 18.5 µM (inactive) | 43.6 µM (inactive) | 64.7 µM (inactive) | 43.3 µM (inactive) | 39.9 µM (inactive) | 32.4 µM (inactive) |
| C/C(=C\c1ccc(Cl)cc1)C(C)(C)C(=O)O | > 100 µM (inactive) | > 100 µM (inactive) | > 100 µM (inactive) | > 100 µM (inactive) | > 100 µM (inactive) | > 100 µM (inactive) | > 100 µM (inactive) | > 100 µM (inactive) | > 100 µM (inactive) | > 100 µM (inactive) | > 100 µM (inactive) | > 100 µM (inactive) | > 100 µM (inactive) | > 100 µM (inactive) | > 100 µM (inactive) | > 100 µM (inactive) | 3.75 µM (inactive) |
| CC1(C)CNC(=O)C2(/C=N/C(C)(C)CNC(=O)C3(/C=N/1)CCCO3)CCCO2 (stereo unspecified) | > 10 µM (inactive) | > 10 µM (inactive) | > 10 µM (inactive) | > 10 µM (inactive) | > 10 µM (inactive) | > 10 µM (inactive) | > 10 µM (inactive) | – | > 10 µM (inactive) | > 10 µM (inactive) | > 10 µM (inactive) | > 10 µM (inactive) | > 10 µM (inactive) | > 10 µM (inactive) | > 10 µM (inactive) | > 10 µM (inactive) | > 10 µM (inactive) |
| N#C/C(=C\c1ccc(Br)cc1)c1nc(-c2cc3ccccc3oc2=O)cs1 | 35.1 µM (inactive) | 13.3 µM (inactive) | 19.1 µM (inactive) | 14.9 µM (inactive) | 18.4 µM (inactive) | 23.5 µM (inactive) | – | 31 µM (inactive) | 15.9 µM (inactive) | 44.1 µM (inactive) | 28.2 µM (inactive) | 21.8 µM (inactive) | 10.7 µM (inactive) | 19.8 µM (inactive) | 17.7 µM (inactive) | 18.9 µM (inactive) | 34 µM (inactive) |
| CCOC(=O)c1cc(C)nc2c1c(=O)n(-c1ccccc1)c(=O)n2CCCCN1CCN(c2ncccn2)CC1 | > 100 µM (inactive) | > 100 µM (inactive) | > 100 µM (inactive) | > 100 µM (inactive) | > 100 µM (inactive) | > 100 µM (inactive) | > 100 µM (inactive) | > 100 µM (inactive) | > 100 µM (inactive) | 23.8 µM (inactive) | > 100 µM (inactive) | 35.2 µM (inactive) | – | > 100 µM (inactive) | > 100 µM (inactive) | > 100 µM (inactive) | 29.9 µM (inactive) |
| CC1(C)CC(=O)c2c(nc3ccc4ccccc4c3c2-c2ccc(NC(=O)CCC(=O)Nc3ccc(-c4c5c(nc6ccc7ccccc7c46)CC(C)(C)CC5=O)cc3)cc2)C1 | > 100 µM (inactive) | > 100 µM (inactive) | > 100 µM (inactive) | > 100 µM (inactive) | > 100 µM (inactive) | > 100 µM (inactive) | – | > 100 µM (inactive) | > 100 µM (inactive) | > 100 µM (inactive) | > 100 µM (inactive) | > 100 µM (inactive) | > 100 µM (inactive) | > 100 µM (inactive) | > 100 µM (inactive) | > 100 µM (inactive) | > 100 µM (inactive) |
| CC(=O)Nc1ccc(/C=C/C(=O)N2CC(CCl)c3c2cc(N)c2ccccc32)cc1 (stereo unspecified) | < 0.005 µM (active) | 0.01 µM (active) | 0.0064 µM (active) | < 0.005 µM (active) | < 0.005 µM (active) | 0.00767 µM (active) | < 0.005 µM (active) | < 0.005 µM (active) | < 0.005 µM (active) | 0.0149 µM (active) | 0.00641 µM (active) | < 0.005 µM (active) | < 0.005 µM (active) | < 0.005 µM (active) | 0.00553 µM (active) | 0.0091 µM (active) | < 0.005 µM (active) |
| COc1ccc(/C=C2\N=C3N(Cc4ccccc4)C=C(N)N3C2=O)cc1 | > 100 µM (inactive) | 59.4 µM (inactive) | > 100 µM (inactive) | > 100 µM (inactive) | > 100 µM (inactive) | > 100 µM (inactive) | > 100 µM (inactive) | 82.8 µM (inactive) | 64.6 µM (inactive) | – | > 100 µM (inactive) | 46.7 µM (inactive) | 20.8 µM (inactive) | > 100 µM (inactive) | > 100 µM (inactive) | 37.2 µM (inactive) | – |
| CN1C[C@H]2[C@@H](C1=O)[C@H](c1ccccc1)ON2C | > 100 µM (inactive) | – | – | > 100 µM (inactive) | > 100 µM (inactive) | > 100 µM (inactive) | > 100 µM (inactive) | > 100 µM (inactive) | > 100 µM (inactive) | > 100 µM (inactive) | > 100 µM (inactive) | > 100 µM (inactive) | > 100 µM (inactive) | > 100 µM (inactive) | > 100 µM (inactive) | > 100 µM (inactive) | > 100 µM (inactive) |
| COc1ccc(-c2cc(C(O)C3CCCCN3)c3ccccc3n2)cc1 (stereo unspecified) | 13.8 µM (inactive) | 6.92 µM (inactive) | 4.14 µM (inactive) | 2.14 µM (inactive) | 3.87 µM (inactive) | 3.73 µM (inactive) | 13.4 µM (inactive) | 12 µM (inactive) | 13.7 µM (inactive) | 2.33 µM (inactive) | 2.43 µM (inactive) | 6.25 µM (inactive) | 13.7 µM (inactive) | 9.59 µM (inactive) | 4.92 µM (inactive) | 14.2 µM (inactive) | 0.394 µM (active) |
| CC(C)(C)[Si](C)(C)OCC1CCC(n2cnc3c(N)ncnc32)O1 (stereo unspecified) | – | – | 39.1 µM (inactive) | 38.8 µM (inactive) | – | 25.9 µM (inactive) | 30.6 µM (inactive) | > 100 µM (inactive) | 45.4 µM (inactive) | 42 µM (inactive) | 72.8 µM (inactive) | 17.1 µM (inactive) | > 100 µM (inactive) | > 100 µM (inactive) | 47.1 µM (inactive) | 65 µM (inactive) | > 10 µM (inactive) |
| CCOP(=O)(OCC)/C(C#N)=C/c1cccn1Cc1ccccc1 | 34.8 µM (inactive) | 38 µM (inactive) | 26.9 µM (inactive) | 48.1 µM (inactive) | 29.5 µM (inactive) | 19.4 µM (inactive) | 31.3 µM (inactive) | 83.2 µM (inactive) | 33.6 µM (inactive) | – | 19.7 µM (inactive) | 16.1 µM (inactive) | 44.4 µM (inactive) | 25.8 µM (inactive) | 29.9 µM (inactive) | 53 µM (inactive) | 31.3 µM (inactive) |
| C[C@@H](CC(O)C(O)C(C)(C)O)C1CCC23CC12CCC1[C@@]2(C)CCC(O)C(C)(C)C2CC(OC2OC(CO)C(O)C(O)C2O)[C@]13C (stereo partly specified) | > 10 µM (inactive) | > 10 µM (inactive) | > 10 µM (inactive) | > 10 µM (inactive) | > 10 µM (inactive) | > 10 µM (inactive) | > 10 µM (inactive) | > 10 µM (inactive) | > 10 µM (inactive) | > 10 µM (inactive) | > 10 µM (inactive) | > 10 µM (inactive) | > 10 µM (inactive) | > 10 µM (inactive) | > 10 µM (inactive) | > 10 µM (inactive) | – |
| Cc1ccc(S(=O)(=O)NC(=O)NC(Cc2ccccc2)C(=O)O)cc1 (stereo unspecified) | > 100 µM (inactive) | – | > 100 µM (inactive) | > 100 µM (inactive) | > 100 µM (inactive) | – | > 100 µM (inactive) | > 100 µM (inactive) | > 100 µM (inactive) | > 100 µM (inactive) | > 100 µM (inactive) | > 100 µM (inactive) | > 100 µM (inactive) | > 100 µM (inactive) | – | > 100 µM (inactive) | > 100 µM (inactive) |
| CC1=C2C(=C[C@H]3[C@]4(C)CCCC(C)(C)[C@H]4CC[C@]34O[C@H]24)OC1=O | > 100 µM (inactive) | > 100 µM (inactive) | > 100 µM (inactive) | > 100 µM (inactive) | > 100 µM (inactive) | > 100 µM (inactive) | > 100 µM (inactive) | > 100 µM (inactive) | – | > 100 µM (inactive) | > 100 µM (inactive) | > 100 µM (inactive) | > 100 µM (inactive) | > 100 µM (inactive) | > 100 µM (inactive) | > 100 µM (inactive) | – |
| COc1cc(C2c3[nH]c4ccccc4c3[C@@H](Nc3ccc(F)cc3)[C@H]3COC(=O)N23)cc(OC)c1O (stereo partly specified) | 0.465 µM (active) | 2.55 µM (inactive) | 1.91 µM (inactive) | 2.02 µM (inactive) | 0.622 µM (active) | 2.5 µM (inactive) | 1.42 µM (inactive) | 1.79 µM (inactive) | 2.7 µM (inactive) | – | 2.01 µM (inactive) | 1.14 µM (inactive) | 1.26 µM (inactive) | 1.23 µM (inactive) | 2.3 µM (inactive) | 1.1 µM (active) | – |
